The text below walks through data of patent US8455533B2, “Aminotetrahydropyrans as dipeptidyl peptidase-IV inhibitors for the treatment or prevention of diabetes” (Merck Sharp & Dohme Corp., priority 2009, dated 2013).

Structures can show the parent of a compound that is named as a salt.

Chain of DPP-4 (P27487 39-766 limits assumed, species assumed): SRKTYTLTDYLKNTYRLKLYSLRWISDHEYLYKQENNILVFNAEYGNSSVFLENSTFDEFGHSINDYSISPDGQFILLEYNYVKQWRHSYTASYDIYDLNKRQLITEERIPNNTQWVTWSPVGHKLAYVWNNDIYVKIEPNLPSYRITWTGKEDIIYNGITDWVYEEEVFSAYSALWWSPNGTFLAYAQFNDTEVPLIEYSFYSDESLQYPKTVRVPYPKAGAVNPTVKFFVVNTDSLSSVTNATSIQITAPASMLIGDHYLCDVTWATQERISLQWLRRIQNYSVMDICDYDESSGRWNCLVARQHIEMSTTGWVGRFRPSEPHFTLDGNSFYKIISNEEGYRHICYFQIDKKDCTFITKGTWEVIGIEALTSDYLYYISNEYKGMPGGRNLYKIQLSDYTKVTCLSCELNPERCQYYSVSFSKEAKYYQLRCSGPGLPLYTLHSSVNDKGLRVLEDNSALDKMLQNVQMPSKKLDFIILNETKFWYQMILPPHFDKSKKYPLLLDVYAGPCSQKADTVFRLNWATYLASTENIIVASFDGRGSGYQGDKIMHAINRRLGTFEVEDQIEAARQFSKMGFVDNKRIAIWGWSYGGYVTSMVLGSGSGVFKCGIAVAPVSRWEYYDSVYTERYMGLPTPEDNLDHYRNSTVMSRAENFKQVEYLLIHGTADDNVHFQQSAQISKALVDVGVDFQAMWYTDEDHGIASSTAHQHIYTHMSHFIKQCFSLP

The first test deals with T1, dipeptidyl peptidase-IV enzyme (DPP-4) (Homo sapiens, UniProt P27487).
T1 construct: The enzyme used in these studies was soluble (transmembrane domain and cytoplasmic extension excluded) human protein; made in house; host or cells: baculovirus expression system (Bac-To-Bac, Gibco BRL)
T1 sequence (P27487 29-766 limits assumed): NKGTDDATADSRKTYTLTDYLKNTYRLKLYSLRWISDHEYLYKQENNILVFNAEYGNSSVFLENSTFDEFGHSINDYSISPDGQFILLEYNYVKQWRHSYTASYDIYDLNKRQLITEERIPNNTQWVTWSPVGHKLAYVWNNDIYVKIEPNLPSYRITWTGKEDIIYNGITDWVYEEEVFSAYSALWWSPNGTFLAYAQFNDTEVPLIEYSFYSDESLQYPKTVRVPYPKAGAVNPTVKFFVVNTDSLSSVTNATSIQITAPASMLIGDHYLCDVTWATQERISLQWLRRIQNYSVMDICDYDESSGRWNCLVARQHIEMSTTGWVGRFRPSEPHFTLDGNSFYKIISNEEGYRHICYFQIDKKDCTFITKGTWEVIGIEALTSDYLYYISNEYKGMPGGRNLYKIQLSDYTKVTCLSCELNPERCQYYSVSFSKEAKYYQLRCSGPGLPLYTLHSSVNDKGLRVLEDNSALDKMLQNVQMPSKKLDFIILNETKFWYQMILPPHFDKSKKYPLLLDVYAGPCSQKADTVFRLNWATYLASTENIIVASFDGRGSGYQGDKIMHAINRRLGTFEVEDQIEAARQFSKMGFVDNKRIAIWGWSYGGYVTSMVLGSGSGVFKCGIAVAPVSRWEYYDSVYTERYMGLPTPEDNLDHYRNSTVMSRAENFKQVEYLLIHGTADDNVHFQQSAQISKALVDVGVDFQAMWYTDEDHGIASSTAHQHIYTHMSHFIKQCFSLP
As to the kind of experiment: DPP-4 inhibition, continuous fluorometric assay with substrate Gly-Pro-AMC. The test is classed as biochemical. Conditions: soluble human DPP-4, 50 μM Gly-Pro-AMC, pH 7.5, room temperature. How it is done:
Inhibition constants are determined as follows. A continuous fluorometric assay is employed with the substrate Gly-Pro-AMC, which is cleaved by DPP-4 to release the fluorescent AMC leaving group. […] A typical reaction contains approximately 50 pM enzyme, 50 μM Gly-Pro-AMC, and buffer (100 mM HEPES, pH 7.5, 0.1 mg/mL BSA) in a total reaction volume of 100 μL. Liberation of AMC is monitored continuously in a 96-well plate fluorometer using an excitation wavelength of 360 nm and an emission wavelength of 460 nm. Under these conditions, approximately 0.8 μM AMC is produced in 30 min at 25 degrees C. The enzyme used in these studies was soluble (transmembrane domain and cytoplasmic extension excluded) human protein produced in a baculovirus expression system (Bac-To-Bac, Gibco BRL). […] To measure the dissociation constants for compounds, solutions of inhibitor in DMSO were added to reactions containing enzyme and substrate (final DMSO concentration is 1%). All experiments were conducted at room temperature using the standard reaction conditions described above. To determine the dissociation constants (Ki), reaction rates were fit by non-linear regression to the Michaelis-Menton equation for competitive inhibition. The errors in reproducing the dissociation constants are typically less than two-fold.
Regarding `NC(=O)Cn1cc2c(n1)CN([C@H]1CO[C@H](c3cc(F)ccc3F)[C@@H](N)C1)C2` [Example 1, 2-{5-[(3R,5S,6R)-5-amino-6-(2,5-difluorophenyl)tetrahydro-2H-pyran-3-yl]-5,6-dihydropyrrolo[3,4-c]pyrazol-2(4H)-yl}acetamide], the IC50 (in general, the point on the concentration scale where inhibition reaches its midpoint) was 6.8 nM. In other words, the single-digit nanomolar range.
Still for that read-out and setting: the same measure for `COC(=O)Cn1cc2c(n1)CN([C@H]1CO[C@H](c3cc(F)ccc3F)[C@@H](N)C1)C2` [Example 2, Methyl {5-[(3R,5S,6R)-5-amino-6-(2,5-difluorophenyl)tetrahydro-2H-pyran-3-yl]-5,6-dihydropyrrolo[3,4-c]pyrazol-2(4B)-yl}acetate]: 8.1 nM; for `N[C@H]1C[C@@H](N2Cc3cn(CC(=O)O)nc3C2)CO[C@@H]1c1cc(F)ccc1F` [Example 3, {5-[(3R,5S,6R)-5-amino-6-(2,5-difluorophenyl)tetrahydro-2H-pyran-3-yl]-5,6-dihydropyrrolo[3,4-c]pyrazol-2(4H)-yl}acetic acid hydrochloride salt]: 9.4 nM; for `N[C@H]1C[C@@H](N2Cc3cn(CCO)nc3C2)CO[C@@H]1c1cc(F)ccc1F` [Example 4, 2-{5-[(3R,5S,6R)-5-amino-6-(2,5-difluorophenyl)tetrahydro-2H-pyran-3-yl]-5,6-dihydropyrrolo[3,4-c]pyrazol-2(4H)-yl}ethanol]: 11 nM.
Same read-out and setting: the same measure for `CC(C)(O)Cn1cc2c(n1)CN([C@H]1CO[C@H](c3cc(F)ccc3F)[C@@H](N)C1)C2` [Example 5, 1-{5-[(3R,5S,6R)-5-amino-6-(2,5-difluorophenyl)tetrahydro-2H-pyran-3-yl]-5,6-dihydropyrrolo[3,4-c]pyrazol-2(4H)-yl}-2-methylpropan-2-ol]: 9.3 nM; for `CC(C)(O)Cn1ncc2c1CN([C@H]1CO[C@H](c3cc(F)ccc3F)[C@@H](N)C1)C2` [Example 6, 1-{5-[(3R,5S,6R)-5-amino-6-(2,5-difluorophenyl)tetrahydro-2H-pyran-3-yl]-5,6-dihydropyrrolo-[3,4-c]pyrazol-1(4H)-yl}-2-methylpropan-2-ol]: 4 nM; for `NC(=O)Cn1ncc2c1CN([C@H]1CO[C@H](c3cc(F)ccc3F)[C@@H](N)C1)C2` [Example 7]: 7.5 nM.
Still for that read-out and setting: in the case of `NC(=O)Cn1cc2c(n1)CN([C@H]1CO[C@H](c3cc(F)c(F)cc3F)[C@@H](N)C1)C2` [Example 8] it was 8.9 nM; in that of `NC(=O)Cn1ncc2c1CN([C@H]1CO[C@H](c3cc(F)c(F)cc3F)[C@@H](N)C1)C2` [Example 9], 7.4 nM.
For the molecule `COC(=O)Cn1cc2c(n1)CN([C@H]1CO[C@H](c3cc(F)c(F)cc3F)[C@@H](N)C1)C2` [Example 10], the IC50 came to 12 nM.
The same measure, in the same setting: the same measure for `CC(C)(O)Cn1ncc2c1CN([C@H]1CO[C@H](c3cc(F)c(F)cc3F)[C@@H](N)C1)C2` [Example 12]: 9.2 nM; for `N#Cc1[nH]nc2c1CN([C@H]1CO[C@H](c3cc(F)ccc3F)[C@@H](N)C1)C2` [Example 13]: 0.89 nM; for `N[C@H]1C[C@@H](N2Cc3n[nH]c(-c4nnn[nH]4)c3C2)CO[C@@H]1c1cc(F)ccc1F` [Example 14]: 0.6 nM.

Another test addresses DPP-4 (Homo sapiens, UniProt P27487).
Experiment: not given
As to conditions: cited from earlier work.
Consider diprotin A, for which the “degradation of GRF in plasma to GRF[3-44]” value is “prevented”.

The test system of the next test is hematopoiesis.
Experiment: not given
Conditions: mouse, cyclophosphamide-induced neutropenia; WO 99/56753; cited from earlier work.
In the case of `CC(C)[C@H](N)C(=O)N1CCC[C@H]1B(O)O` [Val-Boro-Pro], the hematopoiesis result is reported as “stimulated hematopoiesis”.

A further test concerns cardiac allograft survival.
Experiment: not given
As to conditions: rats; survival from day 7 to day 14; Transplantation 63:1495-1500 (1997); cited from earlier work.
In the case of `CC(C)N1CCC(c2ccccc2)(c2ccccc2)CC1` [Prodipine, Pro-Pro-diphenyl-phosphonate], the cardiac allograft survival entry is “double cardiac allograft survival”.
